From paper PMC12514841 (Protein Science : A Publication of the Protein Society, 2025)
“And” between values parts separate entries of the source, which are not always exact repeats. Equal entries are not always repeated.

How the values were obtained:
Assay type in all cases: biochemical
[1] = target: T1, BlaC I105G-G132N (Mycobacterium tuberculosis, UniProt P9WKD3, G144N/I117G)
[2] = target: T2, BlaC I105Y-S130G (Mycobacterium tuberculosis, UniProt P9WKD3, I117Y/S142G); conditions: pH 6.4
[3] = target: BlaC G132N (Mycobacterium tuberculosis, UniProt P9WKD3, G132N/G144N)
[4] = target: BlaC I105Y (Mycobacterium tuberculosis, UniProt P9WKD3, I117Y); conditions: pH 6.4
[5] = target: BlaC S130G (Mycobacterium tuberculosis, UniProt P9WKD3, S142G)
[6] = target: BlaC I105G (Mycobacterium tuberculosis, UniProt P9WKD3, I117G); conditions: pH 6.4
[7] = target: T1, BlaC I105G-G132N; remark: listed apart in the source
[8] = target: T2, BlaC I105Y-S130G

SMILES: CC1(C)S[C@@H]2[C@H](NC(=O)[C@H](N)c3ccccc3)C(=O)N2[C@H]1C(=O)O [Ampicillin, ampicillin]
- factor by which the magnitude of positive epistasis diminished in MES buffer [1]: 7.4
- KMapp ([1]; pH 6.4): 183 ± 21 µM
- k cat ([1]; pH 6.4): 18 ± 1 and 18 ± 1 s^−1
- k cat /K M ^app relative to the wild-type ([1]; pH 6.4): 0.95 ± 0.05
- k cat/K M ^app ([1]; pH 6.4): 0.20 ± 0.01 and 0.20 ± 0.01 μM^−1 s^−1
- kcat ([1]; pH 6.4): 54 ± 2 s⁻¹
- kcat/KMapp ([1]; pH 6.4): 300000 ± 40000 M⁻¹ s⁻¹
- kcat/KMapp relative to the wild-type ([1]; pH 6.4): 1.42 ± 0.05
- KMapp [2]: 813 ± 132 µM
- k cat [2]: 17 ± 1 and 17 ± 1 s^−1
- k cat /K M ^app relative to the wild-type [2]: 0.270 ± 0.005
- k cat/K M ^app [2]: 0.057 ± 0.001 and 0.057 ± 0.001 μM^−1 s^−1
- kcat [2]: 23 ± 3 s⁻¹
- kcat/KMapp [2]: 29000 ± 6000 M⁻¹ s⁻¹
- kcat/KMapp relative to the wild-type [2]: 0.14 ± 0.03
- KMapp ([3]; pH 6.4): 282 ± 9 µM
- k cat ([3]; pH 6.4): 33 ± 12 and 33 ± 12 s^−1
- k cat /K M ^app relative to the wild-type ([3]; pH 6.4): 0.10 ± 0.05
- k cat/K M ^app ([3]; pH 6.4): 0.02 ± 0.01 and 0.02 ± 0.01 μM^−1 s^−1
- kcat ([3]; pH 6.4): 61 ± 1 s⁻¹
- kcat/KMapp ([3]; pH 6.4): 220000 ± 10000 M⁻¹ s⁻¹
- kcat/KMapp relative to the wild-type ([3]; pH 6.4): 1.04 ± 0.05
- KMapp [4]: 89 ± 7 µM
- k cat [4]: 48 ± 1 and 48 ± 1 s^−1
- k cat /K M ^app relative to the wild-type [4]: 4.43 ± 0.1
- k cat/K M ^app [4]: 0.98 ± 0.02 and 0.98 ± 0.02 μM^−1 s^−1
- kcat [4]: 28 ± 1 s⁻¹
- kcat/KMapp [4]: 320000 ± 30000 M⁻¹ s⁻¹
- kcat/KMapp relative to the wild-type [4]: 1.52 ± 0.14
- fold decrease in k cat/K M ^app compared to the wild-type [5]: approximately 30 fold
- fold higher activity in MES than in phosphate buffer [5]: roughly 5 fold
- k cat fold lower than for wild-type BlaC [5]: 8 fold
- k cat times higher than for wild-type BlaC [5]: 2.5 times
- KMapp ([5]; pH 6.4): 588 µM
- k cat ([5]; pH 6.4): 1.7 ± 1 and 1.7 ± 1 s^−1
- k cat /K M ^app relative to the wild-type ([5]; pH 6.4): 0.03 ± 0.01
- k cat/K M ^app ([5]; pH 6.4): 0.007 ± 0.001 and 0.007 ± 0.001 μM^−1 s^−1
- kcat ([5]; pH 6.4): 21 ± 1 s⁻¹
- kcat/KMapp ([5]; pH 6.4): 35000 ± 1000 M⁻¹ s⁻¹
- kcat/KMapp relative to the wild-type ([5]; pH 6.4): 0.165 ± 0.005
- KMapp [6]: 31 ± 6 µM
- k cat [6]: 3.95 ± 0.04 and 3.95 ± 0.04 s^−1
- k cat /K M ^app relative to the wild-type [6]: 1.00 ± 0.05
- k cat/K M ^app [6]: 0.21 ± 0.01 and 0.21 ± 0.01 μM^−1 s^−1
- kcat [6]: 6.0 ± 0.4 s⁻¹
- kcat/KMapp [6]: 210000 ± 40000 M⁻¹ s⁻¹
- kcat/KMapp relative to the wild-type [6]: 1.00 ± 0.19

SMILES: CC1(C)S[C@@H]2[C@H](NC(=O)C(C(=O)O)c3ccccc3)C(=O)N2[C@H]1C(=O)O (stereo partly shown) [Carbenicillin, carbenicillin]
- K M ^app ([1]; pH 6.4): 7.0 ± 0.9 µM
- k cat ([1]; pH 6.4): 0.96 ± 0.07 s⁻¹
- k cat /K M ^app relative to the wild-type ([1]; pH 6.4): 1.6 ± 0.2
- k cat/K M ^app ([1]; pH 6.4): 0.14 ± 0.02 µM⁻¹ s⁻¹
- K M ^app [2]: 21 ± 3 µM
- k cat [2]: 2.7 ± 0.2 s⁻¹
- k cat /K M ^app relative to the wild-type [2]: 1.4 ± 0.2
- k cat/K M ^app [2]: 0.13 ± 0.02 µM⁻¹ s⁻¹
- times decrease in catalytic efficiency (k cat/K M ^app) versus the wild-type [3]: 13 times
- K M ^app ([3]; pH 6.4): 224 ± 11 µM
- k cat ([3]; pH 6.4): 1.62 ± 0.02 s⁻¹
- k cat /K M ^app relative to the wild-type ([3]; pH 6.4): 0.080 ± 0.004
- k cat/K M ^app ([3]; pH 6.4): 0.0072 ± 0.0004 µM⁻¹ s⁻¹
- K M ^app [4]: 1.5 ± 1 µM
- k cat [4]: 2.0 ± 0.1 s⁻¹
- k cat /K M ^app relative to the wild-type [4]: 14.9 ± 0.8
- k cat/K M ^app [4]: 1.34 ± 0.07 µM⁻¹ s⁻¹
- K M ^app ([5]; pH 6.4): 72 ± 5 µM
- k cat ([5]; pH 6.4): 1.2 ± 0.1 s⁻¹
- k cat /K M ^app relative to the wild-type ([5]; pH 6.4): 0.22 ± 0.01
- k cat/K M ^app ([5]; pH 6.4): 0.020 ± 0.001 µM⁻¹ s⁻¹
- K M ^app [6]: 1.5 ± 0.4 µM
- k cat [6]: 0.12 ± 0.01 s⁻¹
- k cat /K M ^app relative to the wild-type [6]: 0.90 ± 0.04
- k cat/K M ^app [6]: 0.081 ± 0.004 µM⁻¹ s⁻¹

SMILES: O=C(O)[C@H]1/C(=C/CO)O[C@@H]2CC(=O)N21 [Clavulanic acid, clavulanic acid]
- course of residual activity during incubation [7]: initially a slight drop in activity, followed by a swift recovery
- incubation time after which the enzyme is fully inhibited [8]: 2 h
- state of the enzyme after 24 h of incubation [8]: stays fully inhibited
- activity ([8]; read-out: recovery of activity, of the control activity): 63%

SMILES: O=C(Cc1cccs1)N[C@@H]1C(=O)N2C(C(=O)O)=C(/C=C/c3ccc([N+](=O)[O-])cc3[N+](=O)[O-])CS[C@H]12 [Nitrocefin, nitrocefin]
- K M ^app ([1]; pH 6.4): 115 ± 1 µM
- k cat ([1]; pH 6.4): 41 ± 1 s⁻¹
- k cat /K M ^app relative to the wild-type ([1]; pH 6.4): 0.71 ± 0.01
- k cat/K M ^app ([1]; pH 6.4): 0.357 ± 0.005 µM⁻¹ s⁻¹
- k cat [2]: 21 ± 7 and 21 ± 7 s^−1
- k cat /K M ^app relative to the wild-type [2]: 0.08 ± 0.04
- kcat [2]: 13 ± 4 s⁻¹ and 13 ± 1 s⁻¹
- K M ^app ([3]; pH 6.4): 210 ± 30 µM
- k cat ([3]; pH 6.4): 18 ± 2 s⁻¹
- k cat /K M ^app relative to the wild-type ([3]; pH 6.4): 0.16 ± 0.04
- k cat/K M ^app ([3]; pH 6.4): 0.08 ± 0.02 µM⁻¹ s⁻¹
- K M ^app [4]: 18 ± 1 µM
- k cat [4]: 39 ± 10 s⁻¹
- k cat /K M ^app relative to the wild-type [4]: 4.2 ± 0.2
- k cat/K M ^app [4]: 2.1 ± 0.1 µM⁻¹ s⁻¹
- fold decrease in k cat/K M ^app compared to the wild-type [5]: approximately 30 fold
- K M ^app ([5]; pH 6.4): 358 ± 4 µM
- k cat ([5]; pH 6.4): 5 ± 1 s⁻¹
- k cat /K M ^app relative to the wild-type ([5]; pH 6.4): 0.03 ± 0.01
- k cat/K M ^app ([5]; pH 6.4): 0.014 ± 0.003 µM⁻¹ s⁻¹
- K M ^app [6]: 240 ± 40 µM
- k cat [6]: 79 ± 5 s⁻¹
- k cat /K M ^app relative to the wild-type [6]: 0.68 ± 0.04
- k cat/K M ^app [6]: 0.34 ± 0.02 µM⁻¹ s⁻¹
